The text below walks through data of US20260184710A1, “CASITAS B-LINEAGE LYMPHOMA PROTOONCOGENE B (CBL-B) DEGRADING COMPOUNDS AND ASSOCIATED METHODS OF USE” (Arvinas Operations, Inc., priority 2022, published 2026).

This assay deals with T1, Cbl-b (Homo sapiens, UniProt Q13191).
T1 construct: Cbl-b-HiBit KI Jurkat Cells were purchased from Promega; host or cells: Cbl-b-HiBiT knock-in Jurkat cells
The assay is described as follows: Cbl-b Degradation Method A (FACS, anti-Cbl-b antibody staining). Conditions: Cbl-b-HiBit KI Jurkat Cells, incubated at least 20 hours; for DC50: half maximal degradation, read-out: Cbl-b Degredation Method A IC50; for Dmax: Jurkat, maximum degradation observed, read-out: Cbl-b Degredation Method A Dmax (%). It counts as cell-based. The method, then: Cbl-b Degradation Method A
Cbl-b-HiBit KI Jurkat Cells were purchased from Promega, and cell media consisted of RPMI 1640 with 10% FBS and 1% pen/strep. The cells were counted, measured for viability, and 100 μL of the cell solution was into 96 well flat bottom plates at a ratio of 290,000 cells per 100 μL. Compounds were dissolved in DMSO to make a 10 mM stock solution, which was diluted with cell media. 100 μL of the diluted compound mixture was added to the wells. The plate was incubated for at least 20 hours at 37° C. and 5% CO2. After incubation, the plate was shaken at 700-750 RMP for 15-30 minutes to ensure cells were removed from the wells. The wells were transferred to a 96-well v-bottom plate and spun for 2200 RPM for 3 minutes. The supernatant was removed, cells re-suspended in 100 μL of the fixative, and subsequently incubated at room temperature for 15 minutes. Afterwards, 150 μL of DPBS was added to each well, and the cells were centrifuged at 2500 RPM for 3 minutes. The supernatant was removed and the plate was chilled on ice for 2-3 minutes. While still on the ice, 100 μL of Perm III was added to each well, the wells mixed, and subsequently left on the ice for another 15 minutes. Afterwards, the plate was removed from the ice, 150 μL of DBPS was added to each well, and the cells centrifuged at 2700 RPM for 3 minutes. The supernatant was removed, and an additional 200 μL of was DPBS was added to each well, followed by centrifuging at 2700 RPM for 3 minutes, after which the supernatant was removed. The anti-Cbl-b antibody was diluted 1:200 in 1× Perm Wash buffer and 50 μL of the antibody mixture was added to each well and mixed. After addition, the plate was incubated for 35-45 minutes at room temperature. After incubation, 200 μL of DPBS was added to each wells, and the plate centrifuged at 2700 RPM for 3 minutes, followed by the removal of the supernatant. The washing step was repeated by adding 200 μL of DPBS to each wells followed by centrifuge at 2700 RPM for 3 minutes and removal of the supernatant. The a-Rabbit-AF488 antibody was diluted 1:1000 in Perm Wash buffer, 50 μL of the dilution added to each well, and mixed. After mixing, the plate was incubated for 30 minutes at room temperature in the dark. Subsequently, the supernatant was removed, and 200 μL of DBPS added to the cells, which were then centrifuged at 2900 RPM for 4 minutes. The supernatant was removed, and an additional 95 μL of DBPS was added to the wells and mixed. The cells were then transferred to a round bottom polypropylene plate and analyzed using FACS with the parameters below:
The concentration of an exemplary compound that leads to half maximal degradation (DC50) as well as the maximum degradation observed (Dmax, conventionally expressed as a percentage of control) is shown below in Table 2.
In general terms: HiBiT is a short tag that completes a luciferase, so light tracks the accessible tagged protein.

Structures are written as SMILES.

T1 sequence (Q13191 whole entry): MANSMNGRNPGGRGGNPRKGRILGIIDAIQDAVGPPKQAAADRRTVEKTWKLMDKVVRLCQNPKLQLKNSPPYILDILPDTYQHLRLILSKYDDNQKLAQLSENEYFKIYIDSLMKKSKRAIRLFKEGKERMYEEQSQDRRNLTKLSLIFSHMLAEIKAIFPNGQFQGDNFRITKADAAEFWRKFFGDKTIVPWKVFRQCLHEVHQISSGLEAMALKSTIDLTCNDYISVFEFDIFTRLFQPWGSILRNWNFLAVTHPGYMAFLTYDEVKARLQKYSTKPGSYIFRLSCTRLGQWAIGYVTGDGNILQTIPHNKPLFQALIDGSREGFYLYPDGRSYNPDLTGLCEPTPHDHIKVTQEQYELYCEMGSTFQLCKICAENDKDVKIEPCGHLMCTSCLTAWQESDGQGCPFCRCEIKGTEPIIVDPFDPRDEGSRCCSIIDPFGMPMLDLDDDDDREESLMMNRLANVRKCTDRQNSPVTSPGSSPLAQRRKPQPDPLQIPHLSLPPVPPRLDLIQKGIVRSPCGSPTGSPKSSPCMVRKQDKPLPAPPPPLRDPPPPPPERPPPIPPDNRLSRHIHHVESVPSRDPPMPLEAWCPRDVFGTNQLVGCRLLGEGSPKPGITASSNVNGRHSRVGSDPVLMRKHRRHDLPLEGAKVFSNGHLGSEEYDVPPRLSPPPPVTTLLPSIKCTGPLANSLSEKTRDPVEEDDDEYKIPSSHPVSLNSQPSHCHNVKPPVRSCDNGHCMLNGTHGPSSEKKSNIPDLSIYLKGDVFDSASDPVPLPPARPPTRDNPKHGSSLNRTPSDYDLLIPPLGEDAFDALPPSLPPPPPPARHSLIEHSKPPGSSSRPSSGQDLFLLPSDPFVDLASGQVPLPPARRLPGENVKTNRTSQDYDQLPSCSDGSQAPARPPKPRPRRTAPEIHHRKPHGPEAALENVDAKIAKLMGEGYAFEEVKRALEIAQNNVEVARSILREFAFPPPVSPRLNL

`Cn1cnnc1CC1(c2cccc(N3Cc4c(cc(CN5CC6(CCN(C[C@H]7CC[C@H](OC8CCN(c9ccc%10c(c9F)CN(C9CCC(=O)NC9=O)C%10=O)CC8)CC7)CC6)C5)cc4C(F)(F)F)C3=O)c2)COC1` (stereo partly shown) [Example 6, 3-[4-fluoro-1-oxo-5-(4-{[(1r, 4r)-4-[(2-{[2-(3-{3-[(4-methyl-4H-1,2,4-triazol-3-yl)methyl]oxetan-3-yl}phenyl)-3-oxo-7-(trifluoromethyl)-2,3-dihydro-1H-isoindol-5-yl]methyl}-2,7-diazaspiro[3.5]nonan-7-yl)methyl]cyclohexyl]oxy}piperidin-1-yl)-2,3-dihydro-1H-isoindol-2-yl]piperidine-2,6-dione]: the DC50 was less than 5 nM and the Dmax is more than 70%.
On to `Cn1cnnc1CC1(c2cccc(N3Cc4c(cc(N5CC6(CCN(C[C@H]7CC[C@H](OC8CCN(c9ccc%10c(c9F)CN(C9CCC(=O)NC9=O)C%10=O)CC8)CC7)CC6)C5)cc4C(F)(F)F)C3=O)c2)COC1` (stereo partly shown) [Example 7, 3-[4-fluoro-1-oxo-5-(4-{[(1r, 4r)-4-({2-[2-(3-{3-[(4-methyl-4H-1,2,4-triazol-3-yl)methyl]oxetan-3-yl}phenyl)-3-oxo-7-(trifluoromethyl)-2,3-dihydro-1H-isoindol-5-yl]-2,7-diazaspiro [3.5]nonan-7-yl}methyl)cyclohexyl]oxy}piperidin-1-yl)-2,3-dihydro-1H-isoindol-2-yl]piperidine-2,6-dione], for which the DC50 was less than 5 nM and the Dmax was more than 70%.
For `Cn1cnnc1CC1(c2cccc(N3Cc4c(cc(CN5CC6(CCN(CC7CCN(c8ccc9c(c8F)CN(C8CCC(=O)NC8=O)C9=O)CC7)CC6)C5)cc4C(F)(F)F)C3=O)c2)COC1` (stereo not shown) [Example 25, 3-(4-fluoro-5-{4-[(2-{[2-(3-{3-[(4-methyl-4H-1,2,4-triazol-3-yl)methyl]oxetan-3-yl}phenyl)-3-oxo-7-(trifluoromethyl)-2,3-dihydro-1H-isoindol-5-yl]methyl}-2,7-diazaspiro[3.5]nonan-7-yl)methyl]piperidin-1-yl}-1-oxo-2,3-dihydro-1H-isoindol-2-yl)piperidine-2,6-dione], in that order: 5 to 50 nM and less than 35%.
Taken in the same sequence, the figures for `Cn1cnnc1CC1(c2cccc(N3Cc4c(cc(CN5CCCC(N6CCC(CN7CCC(CN8CCN(c9ccc%10c(c9)C(=O)N(C9CCC(=O)NC9=O)C%10=O)CC8)CC7)CC6)C5)cc4C(F)(F)F)C3=O)c2)COC1` (stereo not shown) [Example 109, 2-(2,6-dioxopiperidin-3-yl)-5-[4-({1-[(1′-{[2-(3-{3-[(4-methyl-4H-1,2,4-triazol-3-yl)methyl]oxetan-3-yl}phenyl)-3-oxo-7-(trifluoromethyl)-2,3-dihydro-1H-isoindol-5-yl]methyl}-[1,3′-bipiperidin]-4-yl)methyl]piperidin-4-yl}methyl)piperazin-1-yl]-2,3-dihydro-1H-isoindole-1,3-dione] were less than 5 nM and more than 70%.
On to `Cn1cnnc1CC1(c2cccc(N3Cc4c(cc(N5CC(CC6CN(c7ccc8c(c7)C(=O)N(C7CCC(=O)NC7=O)C8=O)C6)C5)cc4C(F)(F)F)C3=O)c2)COC1` (stereo not shown) [Example 120, 2-(2,6-dioxopiperidin-3-yl)-5-[3-({1-[2-(3-{3-[(4-methyl-4H-1,2,4-triazol-3-yl)methyl]oxetan-3-yl}phenyl)-3-oxo-7-(trifluoromethyl)-2,3-dihydro-1H-isoindol-5-yl]azetidin-3-yl}methyl)azetidin-1-yl]-2,3-dihydro-1H-isoindole-1,3-dione], for which the DC50 lay in the range of 5 to 50 nM and the Dmax fell in the range of 35 to 70%.
For `Cn1cnnc1CC1(c2cccc(N3Cc4c(cc(N5CC(CC6CCN(c7ccc8c(c7)C(=O)N(C7CCC(=O)NC7=O)C8=O)CC6)C5)cc4C(F)(F)F)C3=O)c2)COC1` (stereo not shown) [Example 133, 2-(2,6-dioxopiperidin-3-yl)-5-[4-({1-[2-(3-{3-[(4-methyl-4H-1,2,4-triazol-3-yl)methyl]oxetan-3-yl}phenyl)-3-oxo-7-(trifluoromethyl)-2,3-dihydro-1H-isoindol-5-yl]azetidin-3-yl}methyl)piperidin-1-yl]-2,3-dihydro-1H-isoindole-1,3-dione], in that order: 5 to 50 nM and more than 70%.
For `Cn1cnnc1CC1(c2cccc(N3Cc4c(cc(N5CC6(CCN(C[C@H]7CC[C@H](OC8CCN(c9ccc%10c(c9Cl)CN(C9CCC(=O)NC9=O)C%10=O)CC8)CC7)CC6)C5)cc4C(F)(F)F)C3=O)c2)COC1` (stereo partly shown) [Example 184, 3-[4-chloro-1-oxo-5-(4-{[(1r,4r)-4-({2-[2-(3-{3-[(4-methyl-4H-1,2,4-triazol-3-yl)methyl]oxetan-3-yl}phenyl)-3-oxo-7-(trifluoromethyl)-2,3-dihydro-1H-isoindol-5-yl]-2,7-diazaspiro[3.5]nonan-7-yl}methyl)cyclohexyl]oxy}piperidin-1-yl)-2,3-dihydro-1H-isoindol-2-yl]piperidine-2,6-dione], in that order: less than 5 nM and more than 70%.
In the case of `Cc1cc(N2CCC(O[C@H]3CC[C@H](CN4CCC5(CC4)CN(c4cc6c(c(C(F)(F)F)c4)CN(c4cccc([C@]7(Cc8nncn8C)C[C@@H](C#N)C7)c4)C6=O)C5)CC3)CC2)c(F)c2c1C(=O)N(C1CCC(=O)NC1=O)C2` (stereo partly shown) [Example 187, (1r,3r)-3-[(4-methyl-4H-1,2,4-triazol-3-yl)methyl]-3-{3-[1-oxo-6-(7-{[(1r,4r)-4-({1-[2-(2,6-dioxopiperidin-3-yl)-4-fluoro-7-methyl-1-oxo-2,3-dihydro-1H-isoindol-5-yl]piperidin-4-yl}oxy)cyclohexyl]methyl}-2,7-diazaspiro[3.5]nonan-2-yl)-4-(trifluoromethyl)-2,3-dihydro-1H-isoindol-2-yl]phenyl}cyclobutane-1-carbonitrile], the DC50 was 5 to 50 nM and the Dmax is 35 to 70%.
On to `Cc1cc(N2CCC(CN3CC4(C3)CN(C3=CC5C(=O)N(c6cccc([C@]7(Cc8nncn8C)C[C@@H](C#N)C7)c6)CC5C(C(F)(F)F)=C3)C4)CC2)c(F)c2c1C(=O)N(C1CCC(=O)NC1=O)C2` (stereo partly shown) [Example 189, (1r,3r)-3-(3-{6-[6-({1-[2-(2,6-dioxopiperidin-3-yl)-4-fluoro-7-methyl-1-oxo-2,3-dihydro-1H-isoindol-5-yl]piperidin-4-yl}methyl)-2,6-diazaspiro[3.3]heptan-2-yl]-1-oxo-4-(trifluoromethyl)-2,3,3a,7a-tetrahydro-1H-isoindol-2-yl}phenyl)-3-[(4-methyl-4H-1,2,4-triazol-3-yl)methyl]cyclobutane-1-carbonitrile], for which the DC50 fell in the range of 5 to 50 nM and the Dmax was 35 to 70%.
For `Cc1cc(N2CCC(CN3CCC4(CC3)CN(c3cc5c(c(C(F)(F)F)c3)CN(c3cccc(C6(Cc7nncn7C)CCC6)c3)C5=O)C4)CC2)c(F)c2c1C(=O)N(C1CCC(=O)NC1=O)C2` (stereo not shown) [Example 190, 3-{4-fluoro-7-methyl-5-[4-({2-[2-(3-{1-[(4-methyl-4H-1,2,4-triazol-3-yl)methyl]cyclobutyl}phenyl)-3-oxo-7-(trifluoromethyl)-2,3-dihydro-1H-isoindol-5-yl]-2,7-diazaspiro[3.5]nonan-7-yl}methyl)piperidin-1-yl]-1-oxo-2,3-dihydro-1H-isoindol-2-yl}piperidine-2,6-dione], in that order: 5 to 50 nM and more than 70%.
`Cc1cc(N2CCC(O[C@H]3CC[C@H](CN4CCN(Cc5cc6c(c(C(F)(F)F)c5)CN(c5cccc([C@]7(Cc8nncn8C)C[C@@H](C#N)C7)c5)C6=O)CC4)CC3)CC2)c(F)c2c1C(=O)N(C1CCC(=O)NC1=O)C2` (stereo partly shown) [Example 205, (1r,3r)-3-[(4-methyl-4H-1,2,4-triazol-3-yl)methyl]-3-(3-{1-oxo-6-[(4-{[(1r,4r)-4-({1-[2-(2,6-dioxopiperidin-3-yl)-4-fluoro-7-methyl-1-oxo-2,3-dihydro-1H-isoindol-5-yl]piperidin-4-yl}oxy)cyclohexyl]methyl}piperazin-1-yl)methyl]-4-(trifluoromethyl)-2,3-dihydro-1H-isoindol-2-yl}phenyl)cyclobutane-1-carbonitrile]: the DC50 was less than 5 nM and the Dmax lay in the range of 35 to 70%.

The term Dmax denotes the greatest extent of degradation seen.
